Columns and labels:
Assay type in all cases: cell-based, human
[1] = system: ERα binding to Her2, EGFR, IGF1-Rβ, PI3K; AKt and MAPK routes; test: Non-genomic activation route, immunoblotting, BT474
Experimental: FIG. 10-2 is a diagram illustrating that the ERAP1-peptide regulates E2-induced non-genomic activation route via IGF-1Rβ and Shc. […] BT-474 cells were treated with the ERAP1-peptide and/or E2 for 24 hours. Then, the cytoplasm fraction was immunoprecipitated with anti-ERα antibody.
FIG. 10-3 is a diagram illustrating that the ERAP1-peptide regulates E2-induced non-genomic activation route via IGF-1Rβ and Shc. […] BT-474 cells were treated with the ERAP1-peptide. Then, the phosphorylation levels of Akt and MAPK were evaluated by Western blotting. […] MCF-7 cells were treated with the ERAP1-peptide or the ERAP1-scramble peptide. The relative phosphorylation levels were quantified by densitometry analysis, and the ratio to the value at 0 hour in the untreated cells was calculated.

[2] = system: tamoxifen-resistant MCF-7 cells; test: Proliferation of tamoxifen-resistant MCF-7 cells; settings: 0, 5, 10 μM; in the presence of E2 and tamoxifen; 24 hours
Experimental: FIG. 14 is a diagram illustrating the suppression effect of the ERAP1-peptide on tamoxifen-resistant MCF-7 cells. […] The tamoxifen-resistant MCF-7 cells were treated with the ERAP1-peptide in each concentration (0, 5 and 10 μM). Then, immediately, the cells were stimulated with 10 nM E2 for 24 hours.
As the tamoxifen-resistant MCF-7 cell lines, those provided from Dr. Satoshi Inoue (Saitama Medical University Research Center for Genomic Medicine) under Material transfer agreement were offered for the experiment described below. The culture of tamoxifen-resistant MCF-7 cell was performed under the conditions recommended by the depositor. The tamoxifen-resistant MCF-7 cells were cultured in DMEM (Invitrogen, Carlsbad, Calif., USA) reinforced with 10% FBS (Nichirei Biosciences, Tokyo, Japan), 1% penicillin/streptomycin (Nacalai tesque, Kyoto, Japan), 1 μM tamoxifen (Sigma, St. Louis. Mo., USA).
Cell proliferation assay was evaluated using Cell-Counting Kit-8 (CCK-8, manufactured by Dojindo Company). First, tamoxifen-resistant MCF-7 cells were seeded in 2×10^4/well on a 48-well plate in DMEM/F12 culture medium containing phenol red and stood in a CO2 incubator for 24 hours. […] Then, 100 μl was moved to a 96-well plate from each well, and the absorbance at 450 nm was measured with a microplate reader.

[3] = system: PHB2/REA phosphorylation; test: Phosphorylation of PHB2 bound to ERα, nuclear fraction; settings: MCF-7, 5 μM peptide, 1 μM E2 24 hours
Experimental: FIG. 22 is a diagram illustrating that phosphorylation of PHB2 serine regulates the transcriptional activity of ERα. […] MCF-7 cells and HCC1395 cells were treated with 5 μM ERAP1-peptide. Then, immediately, the cells were stimulated with 1 μM E2 for 24 hours. Then, the nuclear fraction of each cell was immunoprecipitated with anti-ERα antibody. Furthermore, with respect to the obtained sample, immunoblotting analysis was performed using the antibodies shown in the figure and the phosphorylation antibody. […] COS-7 cells temporarily transfected with PHB2 (or PHB2 mutation vectors, S39A and S39G), ERα, ERE-luciferase vector, and each plasmid of pRL-TK as an internal standard were stimulated with 1 μM E2 for 48 hours.
MCF-7 cells and HCC1395 cells were treated with 5 μM ERAP1-peptide. Then, immediately the cells were stimulated with 1 μM E2 for 24 hours. Then, the nuclear fraction was isolated from the cells of each treatment. The nuclear fraction was precleaned at 4° C. for 3 hours using Normal IgG and rec-Protein G Sepharose 4B (Zymed, San Francisco, Calif., USA), and centrifuged, and then the supernatant was incubated in the presence of an anti-ERα antibody at 4° C. for 6 hours. Then, the supernatant was added with rec-Protein G Sepharose 4B and incubated at 4° C. for 1 hour to precipitate a antigen-antibody complex. […]

[4] = system: ZR-75-1, HCC1500, BT474, YMB-1, KPL-1, HBC4; test: E2-dependent cell proliferation assay, other ERα/ERAP1-positive breast cancer cell lines; settings: 10 μM, 10 nM E2 24 hours
Experimental: FIG. 7-2 is a diagram illustrating that ERAP1-peptide treatment suppresses ERα-dependent cell proliferation of breast cancer cell lines. […] Various ERα/ERAP1-positive breast cancer cell lines shown in the figure were treated with 10 μM of the ERAP1-peptide or the scramble peptide or 10 nM tamoxifen. Then, immediately, the cells were stimulated with 10 nM E2 for 24 hours.
Using Cell-Counting Kit-8 (CCK-8, Dojindo, Kumamoto, Japan), the cell proliferation assay was performed. The cells were harvested, and plated in 2×10^4 cells/well on a 48-well plate, and maintained at 37° C. in a humidified incubator. At the indicated time points, the cells were added with a CCK-8 solution diluted to 1:10, and incubated for 1 hour. Then, the absorbance at 450 nm was measured and the number of living cells in each well was calculated.

[5] = system: ERα; test: ERα down-regulation and polyubiquitination in MCF-7 cells
Experimental: FIG. 4-5 is a diagram illustrating that the ERAP1-peptide promotes nuclear translocation of PHB2. […] Then, the protein level and the mRNA level for the expression of ERα were obtained by Western blotting (the upper panel: Protein) and semi-quantitative RT-PCR (the lower panel: mRNA), respectively. β-actin is a loading control for each. […] MCF-7 cells were treated with the ERAP1-peptide and/or E2 in the presence of 1 μM MG-132 for 1 hour. Then, the cell lysate was immunoprecipitated with anti-ERα antibody.
Down-regulation of ERα was evaluated by semi-quantitative reverse transcription PCR. Complete RNA was extracted using RNeasy Mini purification kit (Qiagen) from E2-treated cells in the presence or in the absence of the ERAP1 peptide, and reverse-transcribed into cDNA using Superscript II reverse transcriptase (Invitrogen), oligo dT primer (nvitrogen) and 25 mM dNTP Mixture (Invitrogen). mRNAs of ERα and β-actin were measured with GeneAmp PCR system (Applied Biosystems, Foster, Calif., USA). The primers are as described below: […]

[6] = system: pS2, cyclin D1, c-Myc, SP-1, E2F1, PgR; test: Quantitative RT-PCR of ERα target genes, KPL-3C; settings: 24 hours

CSCC[C@H](NC(=O)[C@H](CCC(N)=O)NC(=O)[C@H](CCCNC(=N)N)NC(=O)[C@H](CCCNC(=N)N)NC(=O)[C@H](CCCNC(=N)N)NC(=O)[C@H](CCCNC(=N)N)NC(=O)[C@H](CCCNC(=N)N)NC(=O)[C@H](CCCNC(=N)N)NC(=O)[C@H](CCCNC(=N)N)NC(=O)[C@H](CCCNC(=N)N)NC(=O)[C@H](CCCNC(=N)N)NC(=O)[C@H](CCCNC(=N)N)NC(=O)[C@@H](N)CCCNC(=N)N)C(=O)N[C@@H](CC(C)C)C(=O)N[C@@H](CO)C(=O)N[C@@H](CC(=O)O)C(=O)N[C@@H](CC(C)C)C(=O)N[C@H](C(=O)N[C@@H](CC(C)C)C(=O)N[C@@H](CCC(N)=O)C(=O)N[C@@H](CC(C)C)C(=O)N[C@@H](CCCNC(=N)N)C(=O)N[C@@H](CCC(N)=O)C(=O)N[C@@H](CCCNC(=N)N)C(=O)O)[C@@H](C)O [ERAP1-peptide]
bindings of ERα to Her2, EGFR, IGF1-Rβ and PI3K [1]: all of the bindings of ERα to Her2, EGFR, IGF1-Rβ and PI3K were inhibited | cell proliferation of Tam-R MCF-7 [2]: remarkably suppressed the cell proliferation in dose-dependent manner | phosphorylation of PHB2/REA bound to ERα in the nucleus [3]: phosphorylations of the tyrosine and serine residues in the binding-recognized PHB2/REA were recognized | E2-dependent cell proliferation [4]: remarkable E2-dependent proliferation suppression effect in all of the cells | decrease in the protein level of ERα after estrogen ([5]; MCF-7): the decrease thereof was suppressed | polyubiquitination of ERα ([5]; MCF-7, E2, in the presence of MG132): polyubiquitination of ERα was inhibited | expression of ERα target genes [6]: remarkable suppression for expression of all of these genes

From US9725490B2, “ERAP1-derived peptide and use thereof” (TOKUSHIMA UNIVERSITY, priority 2011, dated 2017)
